Test results taken from patent EP0264232A1, “2-Azetidinone derivatives” (TAISHO PHARMACEUTICAL CO. LTD, priority 1986, dated 1988).

Tested on: ICR strain mice
Settings: mouse, in vivo, po, 300 mg/kg
Description: Six male ICR strain mice weighing 20 g for each group were administered orally with 300 mg/kg of the test drug (all the test drugs were used in the form of the suspension in 0.5% CMC). Two hours after administration, 5 mm of the tail from the top was cut under pentobarbital anesthesia, and the bleeding was observed by tapping at the cutting site with a filter paper every 15 seconds. The time when the bleeding was observed stopping for one minute is defined as the arrest point of bleeding, and the duration required from the time when the cutting was done to the arrest point of bleeding is defined as the bleeding time. The observation was carried out up to 1200 seconds. Ticlopidine was used as a positive control.

Structure (SMILES) | Bleeding time ± standard error
CC(C=C1C(=O)N(c2ccccc2)C1c1ccccc1)=NOCC(=O)O (centres unmarked) [Compound 1, 3-(2-carboxymethoxyiminopropylidene)-1,4-diphenyl-2-azetidinone] | 417.5 ± 171.22 s
Clc1ccccc1CN1CCc2sccc2C1 [ticlopidine] | 1127.5 ± 72.50 (note) seconds
